Experimental data reported in patent publication US9951366B2, “Cell-free protein synthesis method and device using a eukaryotic cell lysate in the presence of a caspase inhibitor and the use of a caspase inhibitor for increasing the yield and/or the stability of the synthesized proteins in such a method” (Fraunhofer-Gesellschaft zur Foerderung der angewandten …, priority 2013, dated 2018).

How the values were obtained:
[1] = test system: cell-free eukaryotic translation system on the basis of a cell extract from Spodoptera frugiperda (Sf21) insect cells; assay: Influence of DTT on expression of model proteins in batch and dialysis system (autoradiograph); assay type: biochemical; settings: with Z-VAD-FMK, 48 h
Method: For this purpose, the influence of the reducing agent DTT on the synthesis performance of the batch and dialysis system with different model proteins was investigated.
The synthesis of the glycoprotein erythropoietin (N-terminally fused to a melittin signal sequence; Mel-EPO; 20.9 kDa, unglycosylated) and of ETB (49.3 kDa), luciferase (60.6 kDa), Mel-Hb-EGF-eYFP (51 kDa) and bacteriorhodopsin (26.9 kDa) was carried out in the batch (B) and dialysis system (D) with the addition of the caspase inhibitor (Z-VAD-FMK) without (−) and with (+) the addition of DTT in the translation buffer in the presence of ^14C-leucine for 48 h, 27° C. and 600 rpm.
Control=translation mixture without the addition of a DNA template.

[2] = test system: eukaryotic translation system on the basis of a cell extract from Spodoptera frugiperda (Sf21) insect cells; assay: Influence of irreversible and reversible caspase inhibitors on SII-eYFP synthesis, relative fluorescence intensity; assay type: biochemical; settings: inhibitor 30 μM, 48 h, dialysis mode, compared with control dialysis mixture without inhibitor
Method: Using the example of the fluorescent protein SII-eYFP, the influence of different irreversible caspase inhibitors (Z-VAD-FMK, Ac-VAD-CMK, Ac-DEVD-CMK (SEQ ID NO:1), Q-VD-OPh) and of a reversible caspase inhibitor (Ac-[…]-CHO (SEQ ID NO:10)) on the synthesis was investigated in a eukaryotic dialysis translation system.
The translation of SII-eYFP was carried out using the DNA template pIX3.0-SII-eYFP over 48 h at 600 rpm and 27° C. in the batch and dialysis modes in the presence of different irreversible and reversible caspase inhibitors. All inhibitors were used in a concentration of 30 μM. Following the completion of translation, the different mixtures were examined in the phosphorimager system (Typhoon TRIO+ imager, GE Healthcare) for their fluorescence intensity. For this purpose, 5 μl of each translation mixture was resuspended in 25 μl PBS. Subsequently, 25 μl of this sample was pipetted into a cavity of an Ibidi slide and measured, the excitation of the samples taking place at 488 nm and the emission being measured at 526 nm.

Compound | effect of absence of DTT on expression of model proteins (luciferase, SII-eYFP, ETB, Mel-Hb-EGF-eYFP, bacteriorhodopsin) [1] | glycosylation of Mel-EPO ([1]; with/without DTT) | increase of synthesis yield of fluorescing SII-eYFP [2]
O[C@H](CS)[C@H](O)CS (racemic) [DTT, dithiothreitol] | no negative effect | complete glycosylation of the target protein could only be achieved in the presence of DTT | –
CC(=O)N[C@@H](CC(=O)O)C(=O)N[C@@H](CCC(=O)O)C(=O)N[C@H](C(=O)N[C@@H](CC(=O)O)C(=O)CCl)C(C)C [Ac-DEVD-CMK, acetyl-Asp-Glu-Val-Asp-chloromethylketone] | – | – | 122%
acetyl-Ala-Ala-Val-Ala-Leu-Leu-Pro-Ala-Val-Leu-Leu-Ala-Leu-Leu-Ala-Pro-Asp-Glu-Val-Asp-aldehyde (Ac-AAVALLPAVLLALLAPDEVD-aldehyde; SMILES CC(=O)N[C@@H](C)C(=O)N[C@@H](C)C(=O)N[C@H](C(=O)N[C@@H](C)C(=O)N[C@@H](CC(C)C)C(=O)N[C@@H](CC(C)C)C(=O)N1CCC[C@H]1C(=O)N[C@@H](C)C(=O)N[C@H](C(=O)N[C@@H](CC(C)C)C(=O)N[C@@H](CC(C)C)C(=O)N[C@@H](C)C(=O)N[C@@H](CC(C)C)C(=O)N[C@@H](CC(C)C)C(=O)N[C@@H](C)C(=O)N1CCC[C@H]1C(=O)N[C@@H](CC(=O)O)C(=O)N[C@@H](CCC(=O)O)C(=O)N[C@H](C(=O)N[C@H](C=O)CC(=O)O)C(C)C)C(C)C)C(C)C) | – | – | 53%
CC(C)C(NC(=O)c1ccc2ccccc2n1)C(=O)NC(CC(=O)O)C(=O)COc1c(F)cccc1F (stereo not drawn) [Q-VD-OPh, N-(2-quinolyl)-Val-Asp-(2,6-difluorophenoxy)-methylketone] | – | – | 77%
